{
  "source": "patent US7008943B2",
  "about": "“1-(Pyrrolidin-1-ylmethyl)-3-(pyrrol-2-ylmethylidene)-2-indolinone derivatives” (Pharmacia & Upjohn Company, priority 2000, dated 2006)",
  "key": {"[1]": {"assay": "Plasma Stability Test: conversion of prodrug to drug after IV administration to dogs, HPLC analysis of blood plasma", "format": "in vivo", "settings": "IV at 2 mg/mL, blood plasma followed by HPLC for 4 hours following dosing", "procedure": "The prodrug (3Z)-3-[(3,5-dimethyl-1H-pyrrol-2-yl)-methylidene]-1-(1-pyrrolidinylmethyl)-1,3-dihydro-2H-indol-2-one was administered IV at 2 mg/mL to dogs. Levels of both prodrug and drug (3(Z)-3-[(3,5-dimethyl-1H-pyrrol-2-yl)-methylidene]-1,3-dihydro-2H-indol-2-one) were followed by HPLC analysis of blood plasma for 4 hours following dosing."}, "[2]": {"assay": "Aqueous solubility of prodrug versus parent compound", "format": "physicochemical", "settings": "versus parent compound (II)", "source_text": "The prodrug compounds of the present invention have advantages over compounds of Formula (II) by virtue of improved aqueous solubility and formulability. […] It is contemplated that similar enhanced solubility will be observed for other compounds of Formula (I) carrying the pyrrolidin-1-ylmethyl moiety at the nitrogen of the indolinone ring. A general description of the advantages and uses of prodrugs as pharmaceutically useful compounds is given in an article by Waller and George in Br. J Clin. Pharmac., Vol. 28, pp. 497–507, 1989."}},
  "data": [
    {"smiles": "Cc1cc(C)c(/C=C2\\C(=O)N(CN3CCCC3)c3ccccc32)[nH]1", "note": "[Example 1, (3Z)-3-[(3,5-Dimethyl-1H-pyrrol-2-yl)-methylidene]-1-(1-pyrrolidinylmethyl)-1,3-dihydro-2H-indol-2-one]", "values": [
      {"measurement": "half-life for conversion of the prodrug to drug", "setting": "[1]", "value": 7.3, "unit": "min"},
      {"measurement": "prodrug converted into drug (from area under the curve of drug concentration vs. time)", "setting": "[1]", "value": 80, "unit": "%"},
      {"measurement": "aqueous solubility compared with the parent compound", "setting": "[2]", "value": "increased aqueous solubility"}
    ]}
  ]
}
